# Source: PubChem BioAssay (NCI)
#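 Five compound concentrations were applied to cells in 96-well plates for 48 hours; endpoints were derived by simple linear interpolation of the resulting dose-response curve. TGI marks complete inhibition of growth.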
# Columns and labels:
# Assay in all cases: inhibition of tumour cell growth, NCI panel, 48 h
# 786-0 renal = tested on: 786-0 renal
# A498 renal = tested on: A498 renal
# A549 NSCLC = tested on: A549 NSCLC
# ACHN renal = tested on: ACHN renal
# BT-549 breast = tested on: BT-549 breast
# CAKI-1 renal = tested on: CAKI-1 renal
# COLO 205 colon = tested on: COLO 205 colon
# DU-145 prostate = tested on: DU-145 prostate
# EKVX NSCLC = tested on: EKVX NSCLC
# HCC-2998 colon = tested on: HCC-2998 colon
# HCT-116 colon = tested on: HCT-116 colon
# HCT-15 colon = tested on: HCT-15 colon
# HOP-62 NSCLC = tested on: HOP-62 NSCLC
# HOP-92 NSCLC = tested on: HOP-92 NSCLC
# HS 578T breast = tested on: HS 578T breast
# HT29 colon = tested on: HT29 colon
# IGROV1 ovarian = tested on: IGROV1 ovarian
# KM12 colon = tested on: KM12 colon
# LOX IMVI melanoma = tested on: LOX IMVI melanoma
# M14 melanoma = tested on: M14 melanoma
# MALME-3M melanoma = tested on: MALME-3M melanoma
# MCF7 breast = tested on: MCF7 breast
# MDA-MB-231 breast = tested on: MDA-MB-231 breast
# MDA-MB-435 = tested on: MDA-MB-435
# MDA-N = tested on: MDA-N
# NCI-H226 lung = tested on: NCI-H226 lung
# NCI-H23 lung = tested on: NCI-H23 lung
# NCI-H460 lung = tested on: NCI-H460 lung
# NCI-H522 lung = tested on: NCI-H522 lung
# NCI/ADR-RES ovarian = tested on: NCI/ADR-RES ovarian
# OVCAR-3 ovarian = tested on: OVCAR-3 ovarian
# OVCAR-4 ovarian = tested on: OVCAR-4 ovarian
# OVCAR-5 ovarian = tested on: OVCAR-5 ovarian
# OVCAR-8 ovarian = tested on: OVCAR-8 ovarian
# PC-3 prostate = tested on: PC-3 prostate
# RPMI-8226 leukemia = tested on: RPMI-8226 leukemia
# RXF 393 renal = tested on: RXF 393 renal
# SF-268 CNS = tested on: SF-268 CNS
# SF-295 CNS = tested on: SF-295 CNS
# SF-539 CNS = tested on: SF-539 CNS
# SK-MEL-2 melanoma = tested on: SK-MEL-2 melanoma
# SK-MEL-28 melanoma = tested on: SK-MEL-28 melanoma
# SK-MEL-5 melanoma = tested on: SK-MEL-5 melanoma
# SK-OV-3 ovarian = tested on: SK-OV-3 ovarian
# SN12C renal = tested on: SN12C renal
# SNB-19 CNS = tested on: SNB-19 CNS
# SNB-75 CNS = tested on: SNB-75 CNS
# SW-620 colon = tested on: SW-620 colon
# T-47D breast = tested on: T-47D breast
# TK-10 renal = tested on: TK-10 renal
# U251 CNS = tested on: U251 CNS
# UACC-257 melanoma = tested on: UACC-257 melanoma
# UACC-62 melanoma = tested on: UACC-62 melanoma
# UO-31 renal = tested on: UO-31 renal
# HL-60(TB) leukemia = tested on: HL-60(TB) leukemia
# K-562 leukemia = tested on: K-562 leukemia
# MOLT-4 leukemia = tested on: MOLT-4 leukemia
smiles,measurement,setting,value
O=C(c1ccccc1)c1ccc2c(c1)nc1n2C(c2c(F)cccc2F)SC1 (centres undefined),TGI,786-0 renal,> 100 µM
same,TGI,A498 renal,72.5 µM
same,TGI,A549 NSCLC,> 100 µM
same,TGI,ACHN renal,> 100 µM
same,TGI,BT-549 breast,> 100 µM
same,TGI,CAKI-1 renal,> 100 µM
same,TGI,COLO 205 colon,46.4 µM
same,TGI,DU-145 prostate,> 100 µM
same,TGI,EKVX NSCLC,84.5 µM
same,TGI,HCC-2998 colon,> 100 µM
same,TGI,HCT-116 colon,42.2 µM
same,TGI,HCT-15 colon,> 100 µM
same,TGI,HOP-62 NSCLC,> 100 µM
same,TGI,HOP-92 NSCLC,> 100 µM
same,TGI,HS 578T breast,> 100 µM
same,TGI,HT29 colon,55.9 µM
same,TGI,IGROV1 ovarian,> 100 µM
same,TGI,KM12 colon,66.7 µM
same,TGI,LOX IMVI melanoma,> 100 µM
same,TGI,M14 melanoma,61 µM
same,TGI,MALME-3M melanoma,> 100 µM
same,TGI,MCF7 breast,> 100 µM
same,TGI,MDA-MB-231 breast,> 100 µM
same,TGI,MDA-MB-435,> 100 µM
same,TGI,MDA-N,55.1 µM
same,TGI,NCI-H226 lung,> 100 µM
same,TGI,NCI-H23 lung,> 100 µM
same,TGI,NCI-H460 lung,> 100 µM
same,TGI,NCI-H522 lung,> 100 µM
same,TGI,NCI/ADR-RES ovarian,> 100 µM
same,TGI,OVCAR-3 ovarian,96.2 µM
same,TGI,OVCAR-4 ovarian,> 100 µM
same,TGI,OVCAR-5 ovarian,> 100 µM
same,TGI,OVCAR-8 ovarian,> 100 µM
same,TGI,PC-3 prostate,> 100 µM
same,TGI,RPMI-8226 leukemia,> 100 µM
same,TGI,RXF 393 renal,> 100 µM
same,TGI,SF-268 CNS,> 100 µM
same,TGI,SF-295 CNS,> 100 µM
same,TGI,SF-539 CNS,> 100 µM
same,TGI,SK-MEL-2 melanoma,62.4 µM
same,TGI,SK-MEL-28 melanoma,> 100 µM
same,TGI,SK-MEL-5 melanoma,27.8 µM
same,TGI,SK-OV-3 ovarian,> 100 µM
same,TGI,SN12C renal,> 100 µM
same,TGI,SNB-19 CNS,> 100 µM
same,TGI,SNB-75 CNS,99 µM
same,TGI,SW-620 colon,> 100 µM
same,TGI,T-47D breast,43.5 µM
same,TGI,TK-10 renal,> 100 µM
same,TGI,U251 CNS,> 100 µM
same,TGI,UACC-257 melanoma,> 100 µM
same,TGI,UACC-62 melanoma,72.2 µM
same,TGI,UO-31 renal,54.8 µM
CCOC(=O)c1nc2ccc(C(F)(F)F)cc2nc1Nc1ccc(F)cc1,TGI,786-0 renal,> 100 µM
same,TGI,A498 renal,> 100 µM
same,TGI,A549 NSCLC,82.9 µM
same,TGI,ACHN renal,> 100 µM
same,TGI,BT-549 breast,> 100 µM
same,TGI,CAKI-1 renal,> 100 µM
same,TGI,COLO 205 colon,> 100 µM
same,TGI,DU-145 prostate,> 100 µM
same,TGI,HCT-116 colon,> 100 µM
same,TGI,HCT-15 colon,> 100 µM
same,TGI,HL-60(TB) leukemia,> 100 µM
same,TGI,HOP-62 NSCLC,> 100 µM
same,TGI,HOP-92 NSCLC,98.9 µM
same,TGI,HS 578T breast,73.8 µM
same,TGI,HT29 colon,> 100 µM
same,TGI,IGROV1 ovarian,> 100 µM
same,TGI,K-562 leukemia,> 100 µM
same,TGI,KM12 colon,> 100 µM
same,TGI,LOX IMVI melanoma,> 100 µM
same,TGI,M14 melanoma,> 100 µM
same,TGI,MALME-3M melanoma,> 100 µM
same,TGI,MCF7 breast,> 100 µM
same,TGI,MDA-MB-435,> 100 µM
same,TGI,MDA-N,> 100 µM
same,TGI,MOLT-4 leukemia,> 100 µM
same,TGI,NCI-H23 lung,> 100 µM
same,TGI,NCI-H460 lung,> 100 µM
same,TGI,NCI-H522 lung,> 100 µM
same,TGI,NCI/ADR-RES ovarian,> 100 µM
same,TGI,OVCAR-3 ovarian,> 100 µM
same,TGI,OVCAR-4 ovarian,> 100 µM
same,TGI,OVCAR-5 ovarian,> 100 µM
same,TGI,OVCAR-8 ovarian,> 100 µM
same,TGI,PC-3 prostate,> 100 µM
same,TGI,RXF 393 renal,> 100 µM
same,TGI,SF-268 CNS,> 100 µM
same,TGI,SF-295 CNS,> 100 µM
same,TGI,SF-539 CNS,> 100 µM
same,TGI,SK-MEL-2 melanoma,> 100 µM
same,TGI,SK-MEL-28 melanoma,> 100 µM
same,TGI,SK-OV-3 ovarian,> 100 µM
same,TGI,SN12C renal,> 100 µM
same,TGI,SNB-19 CNS,> 100 µM
same,TGI,SNB-75 CNS,84.3 µM
same,TGI,SW-620 colon,> 100 µM
same,TGI,T-47D breast,> 100 µM
same,TGI,TK-10 renal,> 100 µM
same,TGI,UACC-257 melanoma,> 100 µM
same,TGI,UACC-62 melanoma,> 100 µM
same,TGI,UO-31 renal,> 100 µM
